Test results taken from PMC4854315, “Discovery of a novel allosteric inhibitor-binding site in ERK5: comparison with the canonical kinase hinge ATP-binding site” (Acta Crystallographica. Section D, Structural Biology, 2016).

Tests used:
Assay in all cases: Z'-LYTE kinase panel
Type in all cases: biochemical
MST1R (RON) = target: T1, MST1R (RON) (Homo sapiens, UniProt Q04912)
T1 construct: purchased ThermoFisher (SelectScreen, Z'-LYTE)
Method in brief: (§1)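 Standard Z′-LYTE protocol applied. Compound fixed at 10 µM. Output: % inhibition. Panel size 225 kinases.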

MAPKAPK3 = target: T2, MAPKAPK3 (Homo sapiens, UniProt Q16644)
T2 construct: purchased ThermoFisher (SelectScreen, Z'-LYTE)
T2 sequence (Q16644 whole entry): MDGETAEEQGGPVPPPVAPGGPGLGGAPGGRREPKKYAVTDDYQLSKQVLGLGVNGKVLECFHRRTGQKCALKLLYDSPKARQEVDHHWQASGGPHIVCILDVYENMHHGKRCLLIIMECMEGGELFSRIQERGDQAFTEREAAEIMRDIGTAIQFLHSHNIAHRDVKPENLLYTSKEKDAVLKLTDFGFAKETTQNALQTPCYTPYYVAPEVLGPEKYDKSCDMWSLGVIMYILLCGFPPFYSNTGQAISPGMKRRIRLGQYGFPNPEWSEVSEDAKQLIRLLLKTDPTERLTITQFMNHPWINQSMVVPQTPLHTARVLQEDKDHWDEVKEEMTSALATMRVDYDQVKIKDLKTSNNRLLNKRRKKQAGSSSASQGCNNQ
Method in brief: as §1

DCAMKL2 (DCK2) = target: T3, DCAMKL2 (DCK2) (Homo sapiens, UniProt Q8N568)
T3 construct: purchased ThermoFisher (SelectScreen, Z'-LYTE)
T3 sequence (Q8N568 1-766): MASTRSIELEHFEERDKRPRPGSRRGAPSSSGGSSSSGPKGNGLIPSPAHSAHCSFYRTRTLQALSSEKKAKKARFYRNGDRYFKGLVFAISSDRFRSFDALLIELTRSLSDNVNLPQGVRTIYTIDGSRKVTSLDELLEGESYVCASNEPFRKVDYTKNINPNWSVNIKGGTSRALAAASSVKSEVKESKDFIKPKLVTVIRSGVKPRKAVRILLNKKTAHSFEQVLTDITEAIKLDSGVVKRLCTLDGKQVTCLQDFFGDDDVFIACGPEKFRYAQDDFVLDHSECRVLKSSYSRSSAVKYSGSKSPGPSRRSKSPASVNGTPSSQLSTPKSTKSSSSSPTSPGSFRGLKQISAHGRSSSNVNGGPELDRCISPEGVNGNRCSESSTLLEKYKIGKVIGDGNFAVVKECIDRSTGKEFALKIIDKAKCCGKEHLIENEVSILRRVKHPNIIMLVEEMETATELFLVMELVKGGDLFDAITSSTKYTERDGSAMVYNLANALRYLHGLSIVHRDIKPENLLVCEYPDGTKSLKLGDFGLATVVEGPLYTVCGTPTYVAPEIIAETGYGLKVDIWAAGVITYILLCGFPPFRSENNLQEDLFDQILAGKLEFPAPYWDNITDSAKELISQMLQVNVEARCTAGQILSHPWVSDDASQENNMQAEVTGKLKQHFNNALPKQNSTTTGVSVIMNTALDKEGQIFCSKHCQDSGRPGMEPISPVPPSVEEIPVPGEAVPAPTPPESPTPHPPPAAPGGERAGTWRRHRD
Method in brief: as §1

SNF1LK2 = target: T4, SNF1LK2 (Homo sapiens, UniProt Q9H0K1)
T4 construct: purchased ThermoFisher (SelectScreen, Z'-LYTE)
T4 sequence (Q9H0K1 whole entry): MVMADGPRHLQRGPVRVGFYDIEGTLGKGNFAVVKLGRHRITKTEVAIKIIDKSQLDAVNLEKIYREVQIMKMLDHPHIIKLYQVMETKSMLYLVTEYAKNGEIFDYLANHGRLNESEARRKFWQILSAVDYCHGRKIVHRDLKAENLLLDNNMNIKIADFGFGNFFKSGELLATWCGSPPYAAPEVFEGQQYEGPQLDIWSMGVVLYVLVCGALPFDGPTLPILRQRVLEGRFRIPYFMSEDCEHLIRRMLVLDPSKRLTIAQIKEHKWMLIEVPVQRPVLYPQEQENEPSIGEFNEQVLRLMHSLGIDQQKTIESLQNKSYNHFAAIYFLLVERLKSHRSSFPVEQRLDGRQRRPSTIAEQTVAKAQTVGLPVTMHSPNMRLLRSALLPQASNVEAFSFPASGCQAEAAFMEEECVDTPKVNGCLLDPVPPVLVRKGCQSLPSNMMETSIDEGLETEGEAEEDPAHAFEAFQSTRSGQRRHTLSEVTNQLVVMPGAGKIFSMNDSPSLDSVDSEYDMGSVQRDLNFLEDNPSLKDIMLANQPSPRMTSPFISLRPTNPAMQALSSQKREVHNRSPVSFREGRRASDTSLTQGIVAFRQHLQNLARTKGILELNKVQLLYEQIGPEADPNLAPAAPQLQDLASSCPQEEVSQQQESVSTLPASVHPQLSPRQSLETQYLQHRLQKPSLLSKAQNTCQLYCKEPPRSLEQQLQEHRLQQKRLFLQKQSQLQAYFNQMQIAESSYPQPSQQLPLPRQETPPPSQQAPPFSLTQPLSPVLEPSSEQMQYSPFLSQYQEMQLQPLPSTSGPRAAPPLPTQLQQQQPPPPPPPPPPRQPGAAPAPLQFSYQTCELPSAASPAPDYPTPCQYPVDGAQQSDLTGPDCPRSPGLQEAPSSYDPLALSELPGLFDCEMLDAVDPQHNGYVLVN
Method in brief: as §1

NEK1 = target: T5, NEK1 (Homo sapiens, UniProt Q96PY6)
T5 construct: purchased ThermoFisher (SelectScreen, Z'-LYTE)
T5 sequence (Q96PY6 1-1258): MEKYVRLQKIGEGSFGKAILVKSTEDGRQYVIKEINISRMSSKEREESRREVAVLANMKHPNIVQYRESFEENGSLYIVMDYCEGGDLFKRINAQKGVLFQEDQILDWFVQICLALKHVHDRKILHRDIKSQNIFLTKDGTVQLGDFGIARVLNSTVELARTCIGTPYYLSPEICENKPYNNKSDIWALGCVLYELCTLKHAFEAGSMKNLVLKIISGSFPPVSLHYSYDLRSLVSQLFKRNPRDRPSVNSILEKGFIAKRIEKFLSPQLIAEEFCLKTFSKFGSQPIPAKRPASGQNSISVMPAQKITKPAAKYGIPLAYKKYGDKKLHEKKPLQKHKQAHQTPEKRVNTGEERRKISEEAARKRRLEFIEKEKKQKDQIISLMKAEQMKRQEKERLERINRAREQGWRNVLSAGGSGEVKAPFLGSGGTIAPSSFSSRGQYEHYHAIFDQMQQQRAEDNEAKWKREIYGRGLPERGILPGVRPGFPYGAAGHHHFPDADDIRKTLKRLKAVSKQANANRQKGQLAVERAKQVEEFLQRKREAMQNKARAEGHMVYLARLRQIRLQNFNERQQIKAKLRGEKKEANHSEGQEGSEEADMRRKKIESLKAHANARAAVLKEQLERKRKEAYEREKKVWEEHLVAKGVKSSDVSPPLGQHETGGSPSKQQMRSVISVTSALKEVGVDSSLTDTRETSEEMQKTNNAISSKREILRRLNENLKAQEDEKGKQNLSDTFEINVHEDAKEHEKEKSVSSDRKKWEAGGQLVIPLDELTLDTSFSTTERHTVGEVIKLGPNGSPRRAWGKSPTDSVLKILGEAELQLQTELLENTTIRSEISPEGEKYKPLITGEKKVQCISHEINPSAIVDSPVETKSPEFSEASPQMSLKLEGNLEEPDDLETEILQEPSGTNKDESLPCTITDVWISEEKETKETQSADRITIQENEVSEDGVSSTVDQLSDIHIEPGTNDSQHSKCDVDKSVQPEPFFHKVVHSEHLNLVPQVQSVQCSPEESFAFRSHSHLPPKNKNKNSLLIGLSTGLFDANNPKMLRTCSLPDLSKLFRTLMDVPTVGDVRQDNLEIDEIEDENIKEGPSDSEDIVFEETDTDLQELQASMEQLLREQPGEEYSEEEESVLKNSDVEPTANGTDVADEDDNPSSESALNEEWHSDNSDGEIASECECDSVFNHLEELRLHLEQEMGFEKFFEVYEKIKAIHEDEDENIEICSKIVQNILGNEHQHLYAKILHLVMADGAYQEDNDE
Method in brief: as §1

T1 sequence (Q04912 25-1400): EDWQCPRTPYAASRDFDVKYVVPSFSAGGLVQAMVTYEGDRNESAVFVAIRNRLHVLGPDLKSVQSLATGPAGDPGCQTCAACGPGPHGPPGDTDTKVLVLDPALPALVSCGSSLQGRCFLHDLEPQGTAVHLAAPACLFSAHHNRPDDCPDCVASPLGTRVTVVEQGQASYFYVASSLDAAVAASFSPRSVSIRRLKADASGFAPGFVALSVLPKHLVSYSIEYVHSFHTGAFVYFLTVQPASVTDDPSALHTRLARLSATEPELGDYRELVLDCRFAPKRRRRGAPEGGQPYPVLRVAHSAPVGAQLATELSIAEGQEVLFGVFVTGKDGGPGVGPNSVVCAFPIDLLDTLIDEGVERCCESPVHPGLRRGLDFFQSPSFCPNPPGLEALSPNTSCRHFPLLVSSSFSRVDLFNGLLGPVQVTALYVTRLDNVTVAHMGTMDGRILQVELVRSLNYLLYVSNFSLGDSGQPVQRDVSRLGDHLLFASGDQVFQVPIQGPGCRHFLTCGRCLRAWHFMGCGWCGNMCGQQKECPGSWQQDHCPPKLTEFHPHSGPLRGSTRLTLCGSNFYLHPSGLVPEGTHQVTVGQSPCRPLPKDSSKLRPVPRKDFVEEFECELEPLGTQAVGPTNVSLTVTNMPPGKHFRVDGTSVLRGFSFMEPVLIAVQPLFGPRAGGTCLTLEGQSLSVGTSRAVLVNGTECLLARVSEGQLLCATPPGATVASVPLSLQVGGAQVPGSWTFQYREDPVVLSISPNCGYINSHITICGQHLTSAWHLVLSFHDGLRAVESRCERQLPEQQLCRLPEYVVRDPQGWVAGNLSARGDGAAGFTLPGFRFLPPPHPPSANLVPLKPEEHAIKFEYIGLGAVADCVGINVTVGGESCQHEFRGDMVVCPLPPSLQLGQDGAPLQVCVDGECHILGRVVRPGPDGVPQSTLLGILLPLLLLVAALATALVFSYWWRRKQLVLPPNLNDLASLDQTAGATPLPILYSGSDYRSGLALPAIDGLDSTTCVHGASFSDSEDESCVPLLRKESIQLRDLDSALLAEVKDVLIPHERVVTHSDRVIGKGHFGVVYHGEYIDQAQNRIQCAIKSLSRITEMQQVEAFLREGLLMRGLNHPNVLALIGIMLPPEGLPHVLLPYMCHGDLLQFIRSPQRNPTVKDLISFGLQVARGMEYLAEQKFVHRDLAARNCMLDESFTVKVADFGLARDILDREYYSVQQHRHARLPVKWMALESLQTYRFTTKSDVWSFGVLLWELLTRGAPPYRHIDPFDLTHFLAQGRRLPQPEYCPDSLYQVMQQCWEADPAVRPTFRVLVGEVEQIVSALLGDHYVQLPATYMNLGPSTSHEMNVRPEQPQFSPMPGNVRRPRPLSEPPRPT

XMD8-92 [Compound 2, reference compound]
MST1R (RON) % Inhibition (MST1R (RON); 10 µM compound, ATP Km app): 37% | MAPKAPK3 % Inhibition (MAPKAPK3; 10 µM compound, ATP Km app): 96% | DCAMKL2 (DCK2) % Inhibition (DCAMKL2 (DCK2); 10 µM compound, ATP Km app): 61% | SNF1LK2 % Inhibition (SNF1LK2; 10 µM compound, ATP Km app): 62% | NEK1 % Inhibition (NEK1; 10 µM compound, ATP Km app): -9%

Cc1ncc(-c2nc(Nc3ccc(C(=O)NCCN4CCCCC4)cc3)ncc2F)n1C(C)C [Compound 3]
inhibition at 10 µM (MST1R (RON)): 67% | inhibition at 10 µM (MAPKAPK3): 18% | inhibition at 10 µM (DCAMKL2 (DCK2)): 62% | inhibition at 10 µM (SNF1LK2): 88% | inhibition at 10 µM (NEK1): 6.39%

Cc1cc(Nc2nc(N)nn2C(=O)NC(C)C)ccc1Cl [Compound 5]
inhibition at 10 µM (MST1R (RON)): 1.17% | inhibition at 10 µM (MAPKAPK3): -5% | inhibition at 10 µM (DCAMKL2 (DCK2)): -1.9% | inhibition at 10 µM (SNF1LK2): 74% | inhibition at 10 µM (NEK1): 21%
